In patent publication US20240246977A1, “DEGRADATION OF BRUTON'S TYROSINE KINASE (BTK) BY CONJUGATION OF BTK INHIBITORS WITH E3 LIGASE LIGAND AND METHOD OF USE” (BeiGene Switzerland GmbH, priority 2021, published 2024):

Assays:
HEK-293 cells = assay: HEK-293 cytotoxicity detection (CellTiter-Glo); type: cell-based; conditions: Homo sapiens, 72 h, 72 h incubation, CellTiter-Glo luminescence, read-out: HEK293
Summary of the method: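 HEK-293 cells exposed 72 h to 8 compounds doses (4-fold dilutions, top stock 5 mM at 500×) in 0.2% DMSO. Viability by CellTiter-Glo luminescence; inhibition normalised to DMSO high control and low control, IC50 from four-parameter curve fit.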

BTK = BTK (Homo sapiens, UniProt Q06187); assay: BTK cell degradation in TMD-8 cells, HTRF assay; type: cell-based; design: endogenous in cells; host or cells: TMD-8 cells; conditions: 6 h treatment, IC50 (DC50) of BTK degradation
Summary of the method: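 BTK levels read by HTRF in lysates of TMD-8 cells exposed to compounds for 6 h, eight concentrations at 6-fold steps in 0.2% DMSO. Percent degradation versus DMSO and low controls was fitted with a four-parameter equation to give DC50; Dmax is maximal degradation.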

BTK, sequence (Q06187 whole entry): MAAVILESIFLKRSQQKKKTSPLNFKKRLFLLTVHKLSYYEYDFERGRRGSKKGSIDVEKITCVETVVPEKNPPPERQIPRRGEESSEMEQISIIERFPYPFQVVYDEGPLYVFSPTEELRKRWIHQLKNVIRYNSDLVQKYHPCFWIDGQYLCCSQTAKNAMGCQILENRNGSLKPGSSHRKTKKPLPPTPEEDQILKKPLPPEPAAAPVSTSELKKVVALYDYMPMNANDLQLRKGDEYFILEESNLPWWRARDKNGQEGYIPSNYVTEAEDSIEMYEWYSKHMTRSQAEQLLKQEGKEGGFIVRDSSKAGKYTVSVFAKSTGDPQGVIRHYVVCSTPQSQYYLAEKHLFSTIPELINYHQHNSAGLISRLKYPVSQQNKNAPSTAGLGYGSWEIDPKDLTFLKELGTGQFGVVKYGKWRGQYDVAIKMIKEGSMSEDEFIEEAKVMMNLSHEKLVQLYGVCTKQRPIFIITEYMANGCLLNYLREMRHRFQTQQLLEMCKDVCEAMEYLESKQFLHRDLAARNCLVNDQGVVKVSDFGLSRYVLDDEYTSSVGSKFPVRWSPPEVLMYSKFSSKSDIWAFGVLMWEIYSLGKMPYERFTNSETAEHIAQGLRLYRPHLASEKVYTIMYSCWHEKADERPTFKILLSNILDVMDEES

Cc1nc(NC(=O)c2ccc(-c3nn4c(c3C(N)=O)Nc3ccc(N5CCN(CC6CCN(c7ccc(N8CCC(=O)NC8=O)cc7)CC6)CC5)nc3CC4)c(F)c2C)ccc1Cl [Example B52, 2-(4-((5-chloro-6-methylpyridin-2-yl)carbamoyl)-2-fluoro-3-methylphenyl)-7-(4-((1-(4-(2,4-dioxotetrahydropyrimidin-1(2H)-yl)phenyl)piperidin-4-yl)methyl)piperazin-1-yl)-9,10-dihydro-4H-pyrazolo[1,5-a]pyrido[3,2-d][1,3]diazepine-3-carboxamide]
IC50 (HEK-293 cells): > 10000 nM
DC50 (BTK): 4.06 nM

Cc1nc(NC(=O)c2ccc(-c3nn4c(c3C(N)=O)Nc3ccc(N5CCN(CC6CN(c7ccc(N8CCC(=O)NC8=O)cc7)C6)CC5)cc3CC4)c(F)c2C)ccc1Cl [Example B53, 2-(4-((5-chloro-6-methylpyridin-2-yl)carbamoyl)-2-fluoro-3-methylphenyl)-7-(4-((1-(4-(2,4-dioxotetrahydropyrimidin-1(2H)-yl)phenyl)azetidin-3-yl)methyl)piperazin-1-yl)-9,10-dihydro-4H-benzo[d]pyrazolo[1,5-a][1,3]diazepine-3-carboxamide]
IC50 (HEK-293 cells): > 10000 nM
DC50 (BTK): 18.6 nM

Cc1cccc(NC(=O)c2ccc(-c3nn4c(c3C(N)=O)Nc3ccc(N5CCN(CC6CCN(c7ccc(N8CCC(=O)NC8=O)c(C)c7)CC6)CC5)cc3CC4)c(F)c2C)n1 [Example B54, 7-(4-((1-(4-(2,4-dioxotetrahydropyrimidin-1(2H)-yl)-3-methylphenyl)piperidin-4-yl)methyl)piperazin-1-yl)-2-(2-fluoro-3-methyl-4-((6-methylpyridin-2-yl)carbamoyl)phenyl)-9,10-dihydro-4H-benzo[d]pyrazolo[1,5-a][1,3]diazepine-3-carboxamide]
IC50 (HEK-293 cells): > 10000 nM
DC50 (BTK): 3.75 nM

Cc1cccc(NC(=O)c2ccc(-c3nn4c(c3C(N)=O)Nc3ccc(N5CCN(CC6CCN(c7cc8c(cc7F)C(=O)N(C7CCC(=O)NC7=O)C8=O)CC6)CC5)cc3CC4)c(F)c2C)n1 (centres unmarked) [Example B55, 7-(4-((1-(2-(2,6-dioxopiperidin-3-yl)-6-fluoro-1,3-dioxoisoindolin-5-yl)piperidin-4-yl)methyl)piperazin-1-yl)-2-(2-fluoro-3-methyl-4-((6-methylpyridin-2-yl)carbamoyl)phenyl)-9,10-dihydro-4H-benzo[d]pyrazolo[1,5-a][1,3]diazepine-3-carboxamide]
IC50 (HEK-293 cells): > 10000 nM
DC50 (BTK): 2.42 nM

Cc1cccc(NC(=O)c2ccc(-c3nn4c(c3C(N)=O)Nc3ccc(N5CCN(CC6CCN(c7cc8c(cc7F)CN(C7CCC(=O)NC7=O)C8=O)CC6)CC5)cc3CC4)c(F)c2C)n1 (centres unmarked) [Example B56, 7-(4-((1-(2-(2,6-dioxopiperidin-3-yl)-6-fluoro-3-oxoisoindolin-5-yl)piperidin-4-yl)methyl)piperazin-1-yl)-2-(2-fluoro-3-methyl-4-((6-methylpyridin-2-yl)carbamoyl)phenyl)-9,10-dihydro-4H-benzo[d]pyrazolo[1,5-a][1,3]diazepine-3-carboxamide]
IC50 (HEK-293 cells): > 10000 nM
DC50 (BTK): 4.31 nM

Cc1cccc(NC(=O)c2ccc(-c3nn4c(c3C(N)=O)Nc3ccc(N5CCN(C6CN(C7CN(c8ccc9c(c8)C(=O)N(C8CCC(=O)NC8=O)C9=O)C7)C6)CC5)cc3CC4)c(F)c2C)n1 (centres unmarked) [Example B57, 7-(4-(1′-(2-(2,6-dioxopiperidin-3-yl)-1,3-dioxoisoindolin-5-yl)-[1,3′-biazetidin]-3-yl)piperazin-1-yl)-2-(2-fluoro-3-methyl-4-((6-methylpyridin-2-yl)carbamoyl)phenyl)-9,10-dihydro-4H-benzo[d]pyrazolo[1,5-a][1,3]diazepine-3-carboxamide]
IC50 (HEK-293 cells): > 10000 nM
DC50 (BTK): 0.526 nM

Cc1cccc(NC(=O)c2ccc(-c3nn4c(c3C(N)=O)Nc3ccc(N5CCN(CC6CCN(c7ccc8c(c7)CN(C7CCC(=O)NC7=O)C8=O)CC6)CC5)cc3CC4)c(F)c2C)n1 (centres unmarked) [Example B58, 7-(4-((1-(2-(2,6-dioxopiperidin-3-yl)-1-oxoisoindolin-5-yl)piperidin-4-yl)methyl)piperazin-1-yl)-2-(2-fluoro-3-methyl-4-((6-methylpyridin-2-yl)carbamoyl)phenyl)-9,10-dihydro-4H-benzo[d]pyrazolo[1,5-a][1,3]diazepine-3-carboxamide]
IC50 (HEK-293 cells): > 10000 nM
DC50 (BTK): 2.01 nM

Cc1cccc(NC(=O)c2ccc(-c3nn4c(c3C(N)=O)Nc3ccc(N5CCN(CC6CN(c7ccc(N8CCC(=O)NC8=O)cc7)C6)CC5)cc3CC4)c(F)c2C)n1 [Example B59, 7-(4-((1-(4-(2,4-dioxotetrahydropyrimidin-1(2H)-yl)phenyl)azetidin-3-yl)methyl)piperazin-1-yl)-2-(2-fluoro-3-methyl-4-((6-methylpyridin-2-yl)carbamoyl)phenyl)-9,10-dihydro-4H-benzo[d]pyrazolo[1,5-a][1,3]diazepine-3-carboxamide]
IC50 (HEK-293 cells): > 10000 nM
DC50 (BTK): 1.47 nM

Cc1cccc(NC(=O)c2ccc(-c3nn4c(c3C(N)=O)Nc3ccc(N5CCN(Cc6ccc7c(c6)C(C)(C)C(=O)N7C6CCC(=O)NC6=O)CC5)cc3CC4)c(F)c2C)n1 (centres unmarked) [Example B60, 7-(4-((1-(2,6-dioxopiperidin-3-yl)-3,3-dimethyl-2-oxoindolin-5-yl)methyl)piperazin-1-yl)-2-(2-fluoro-3-methyl-4-((6-methylpyridin-2-yl)carbamoyl)phenyl)-9,10-dihydro-4H-benzo[d]pyrazolo[1,5-a][1,3]diazepine-3-carboxamide]
IC50 (HEK-293 cells): > 10000 nM
DC50 (BTK): 4.97 nM

Cc1cccc(NC(=O)c2ccc(-c3nn4c(c3C(N)=O)Nc3ccc(N5CCN(CCc6cccc7c6oc(=O)n7C6CCC(=O)NC6=O)CC5)cc3CC4)c(F)c2C)n1 (centres unmarked) [Example B61, 7-(4-(2-(3-(2,6-dioxopiperidin-3-yl)-2-oxo-2,3-dihydrobenzo[d]oxazol-7-yl)ethyl)piperazin-1-yl)-2-(2-fluoro-3-methyl-4-((6-methylpyridin-2-yl)carbamoyl)phenyl)-9,10-dihydro-4H-benzo[d]pyrazolo[1,5-a][1,3]diazepine-3-carboxamide]
IC50 (HEK-293 cells): > 10000 nM
DC50 (BTK): 1.09 nM

Cc1cccc(NC(=O)c2ccc(-c3nn4c(c3C(N)=O)Nc3ccc(N5CCN(CCc6cc(F)c(C7CCC(=O)NC7=O)c(F)c6)CC5)cc3CC4)c(F)c2C)n1 (centres unmarked) [Example B62, 7-(4-(4-(2,6-dioxopiperidin-3-yl)-3,5-difluorophenethyl)piperazin-1-yl)-2-(2-fluoro-3-methyl-4-((6-methylpyridin-2-yl)carbamoyl)phenyl)-9,10-dihydro-4H-benzo[d]pyrazolo[1,5-a] [1,3]diazepine-3-carboxamide]
IC50 (HEK-293 cells): > 10000 nM
DC50 (BTK): 1.7 nM

Cc1cccc(NC(=O)c2ccc(-c3nn4c(c3C(N)=O)Nc3ccc(N5CCN(CCc6cc(F)c([C@H]7CCC(=O)NC7=O)c(F)c6)CC5)cc3CC4)c(F)c2C)n1 [Example B63, (R)-7-(4-(4-(2,6-dioxopiperidin-3-yl)-3,5-difluorophenethyl)piperazin-1-yl)-2-(2-fluoro-3-methyl-4-((6-methylpyridin-2-yl)carbamoyl)phenyl)-9,10-dihydro-4H-benzo[d]pyrazolo[1,5-a][1,3]diazepine-3-carboxamide]
IC50 (HEK-293 cells): > 10000 nM
DC50 (BTK): 2.32 nM

Cc1cccc(NC(=O)c2ccc(-c3nn4c(c3C(N)=O)Nc3ccc(N5CCN(C6CC(c7ccc(N8CCC(=O)NC8=O)cc7)C6)CC5)cc3CC4)c(F)c2C)n1 (centres unmarked) [Example B64, 7-(4-(3-(4-(2,4-dioxotetrahydropyrimidin-1(2H)-yl)phenyl)cyclobutyl)piperazin-1-yl)-2-(2-fluoro-3-methyl-4-((6-methylpyridin-2-yl)carbamoyl)phenyl)-9,10-dihydro-4H-benzo[d]pyrazolo[1,5-a][1,3]diazepine-3-carboxamide]
IC50 (HEK-293 cells): > 10000 nM
DC50 (BTK): 4.85 nM

Cc1cccc(NC(=O)c2ccc(-c3nn4c(c3C(N)=O)Nc3ccc(N5CCN(C6CN(C7CN(c8ccc(C9CCC(=O)NC9=O)cc8)C7)C6)CC5)cc3CC4)c(F)c2C)n1 (centres unmarked) [Example B65, 7-(4-(1′-(4-(2,6-dioxopiperidin-3-yl)phenyl)-[1,3′-biazetidin]-3-yl)piperazin-1-yl)-2-(2-fluoro-3-methyl-4-((6-methylpyridin-2-yl)carbamoyl)phenyl)-9,10-dihydro-4H-benzo[d]pyrazol[1,5-a][1,3]diazepine-carboxamide]
IC50 (HEK-293 cells): 98.8 nM
DC50 (BTK): 1.78 nM

Cc1cccc(NC(=O)c2ccc(-c3nn4c(c3C(N)=O)Nc3ccc(N5CCN(C6CN(c7ccc(N8CCC(=O)NC8=O)cc7)C6)CC5)cc3CC4)c(F)c2C)n1 [Example B66, 7-(4-(1-(4-(2,4-dioxotetrahydropyrimidin-1(2H)-yl)phenyl)azetidin-3-yl)piperazin-1-yl)-2-(2-fluoro-3-methyl-4-((6-methylpyridin-2-yl)carbamoyl)phenyl)-9,10-dihydro-4H-benzo[d]pyrazolo[1,5-a][1,3]diazepine-3-carboxamide]
IC50 (HEK-293 cells): > 10000 nM
DC50 (BTK): 1.35 nM

Cc1cccc(NC(=O)c2ccc(-c3nn4c(c3C(N)=O)Nc3ccc(N5CCN(C6CC(c7ccc([C@H]8CCC(=O)NC8=O)cc7)C6)CC5)cc3CC4)c(F)c2C)n1 (stereo partly drawn) [Example B67, (R)-7-(4-(3-(4-(2,6-dioxopiperidin-3-yl)phenyl)cyclobutyl)piperazin-1-yl)-2-(2-fluoro-3-methyl-4-((6-methylpyridin-2-yl)carbamoyl)phenyl)-9,10-dihydro-4H-benzo[d]pyrazolo[1,5-a][1,3]diazepine-3-carboxamide]
IC50 (HEK-293 cells): 96.8 nM
DC50 (BTK): 0.622 nM
